Laboratory results published in US9233978B2, “6-fused heteroaryldihydropyrimidines for the treatment and prophylaxis of hepatitis B virus infection” (Hoffmann-La Roche Inc., priority 2014, dated 2016).
In brackets after ≈: the same amount, converted by molar mass.

What was measured:
HepDE19 cells = experiment: Cytotoxicity in HepDE19 cells (CCK-8) and selectivity index; assay type: cell-based; conditions: CC50 (HepDE19) value / EC50 (HepG2.2.15) value
Method in brief: (§1)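 HepDE19 cells (DMEM-F12, 10% FBS) were treated with compound for five days, then given CCK-8 for 2 h at 37 °C and read at OD450 and OD630. CC50 is the concentration killing 50% of host cells. Selectivity index is CC50/EC50.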

[1] = as above; assay type: cell-based; conditions: human, HepDE19 cells; CCK-8 cell viability; five days after treatment
Method in brief: as §1

CYP3A4 = experiment: Cytochrome P450 induction screening assay, mRNA induction in human cryopreserved hepatocytes; assay type: in vitro ADME; conditions: CYP3A4 mRNA relative induction, 24 hours, test compound up to 10 μM
Protocol: Human cryopreserved hepatocytes (Life Technologies, Carlsbad, USA) were thawed and cultured in collagen I coated 96-well plates with a density of 52,000 cells/well. After attachment, medium was changed and cells were pre-cultured overnight in hepatocyte maintenance medium (HMM; Lonza, Switzerland).
Test compounds were dosed to the cells next morning at an indicated concentration (up to 10 μM) in HMM culture media containing gentamycin and a constant 0.1% DMSO. Similarly, dilutions of the positive inducer compounds omeprazole (prototypical inducer of human CYP1A2; final concentrations: 1 and 10 μM), phenobarbital (prototypical inducer of human CYP2B6; final concentrations: 100 and 1000 μM) and rifampicin (prototypical inducer of human CYP3A4; final concentrations: 1 and 10 μM) were prepared from 1000 fold DMSO stock solutions in HMM containing gentamycin. Medium change was then performed and cells were exposed for 24 hours to test compounds, positive inducer compounds, or vehicle (0.1% DMSO), respectively.
At the end of the compound exposure period, medium was removed and cells lysed using 100 μL/well MagNA Pure LC RNA isolation tissue lysis buffer (Roche Diagnostics AG, Rotkreuz, Switzerland). Plates were then sealed and frozen at −80° C. until further workup.
mRNA isolation was performed using the MagNA Pure 96 system (Roche Diagnostics AG, Rotkreuz, Switzerland) and the respective cellular RNA large volume kit (Roche Diagnostics AG, Rotkreuz, Switzerland) from thawed samples diluted 1:1 with PBS. The volume of the cell lysis and an elution volume of 100 μL were used. 20 μl of the resulting mRNA suspension was then used for reverse transcription using 20 μl of the transcript or first stand cDNA synthesis kit (Roche prime Supply, Mannheim, Germany). The resulting cDNA was diluted with 40 μl of H2O before using for qRT-PCR. qRT-PCR was performed by using the forward and the reverse primer, the corresponding UPL (all from Microsynth, Balgach, Switzerland) and the Taqman Fast advanced master mix (Applied Biosystems), on an ABI 7900 machine (Applied Biosystems).
qRT-PCR Ct-values for the respective P450s were put into relation to the Ct-value of RN18S1 (microsynth, Balgach, Switzerland) of the same sample. Doing so, a respective Δct-value was calculated. Using the average of all Δct-values for the vehicle control samples, a ΔΔct-value was calculated for each sample (ΔΔct-value(sample)=Δct-value(sample)−average of Δct-value of all vehicle controls). The fold induction of the respective sample was calculated as 2^(−ΔΔct). The individual fold induction values were then averaged per treatment condition (usually n=3 biological replicates).
Relative induction values to the respective positive inducer compound condition (10 μM omeprazole for CYP1A2; 1000 μM Phenobarbital for CYP2B6; 10 μM rifampicin for CYP3A4) were then calculated from the fold induction values as follows: Relative induction (%)=100×(T−V)/(P−V)

Lysa solubility = assay type: physicochemical; conditions: phosphate buffer, pH 6.5, aqueous buffer, thermodynamic from solid, 0.05 M phosphate buffer (pH 6.5)
Method in brief: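 Duplicate samples dried from 10 mM DMSO stocks, taken up in 0.05 M phosphate buffer pH 6.5, stirred 1 h, shaken 2 h and left overnight. Filtrate and 1/10 dilution quantified by direct UV or HPLC-UV, in μg/mL; above 80% of the calculated maximum, reported as greater than that value.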

[2] = Human microsomal metabolic stability; assay type: in vitro ADME; conditions: human microsomes 0.5 mg/mL, 1 μM test compound, NADPH, 37° C., pH 7.4, 0-30 minutes
Method in brief: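 1 μM compound with 0.5 mg/mL human liver microsomal protein in 100 mM phosphate pH 7.4 at 37° C, started with 1 mM NADPH or a NADPH-regenerating system. Sampled at 0–30 min, quenched in cold methanol with tolbutamide internal standard; remaining parent quantified by LC-MS/MS.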

HBV [3] = experiment: Anti-HBV activity in vitro, HepG2.2.15 cells, extracellular HBV DNA by qPCR; assay type: cell-based; conditions: Hepatitis B virus, HepG2.2.15, 120 h, HepG2.2.15 cells; HBV replication inhibited by 50%, extracellular HBV DNA by qPCR; five days after compound treatment; read-out: EC50
Method in brief: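 Extracellular HBV DNA in culture supernatant was measured by qPCR after nucleic acid extraction. The supernatant came from constitutively replicating HepG2.2.15 cells exposed for five days to half-log-diluted compounds, with DMSO at 0.5% final. Cells had been plated overnight at 37 °C beforehand.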

HBV [4] = conditions: HBV infected transgenic mouse or humanized mouse models; cited from earlier work

SMILES	Selectivity index (CC50/EC50) (HepDE19 cells)	CC50 at 5 days [1]	% of Positive control (10 μM Rifampicin) (CYP3A4)	solubility thermodynamic (Lysa solubility)	Human Microsomal Clearance [2]	EC50 (HBV [3])	in vivo efficacy (HBV DNA reduction) (HBV [4])
COC(=O)C1=C(CN2CCN3C(=O)N(CCC(C)(C)C(=O)O)C[C@@H]3C2)NC(c2nccs2)=N[C@H]1c1ccc(F)cc1Cl [Example 54, 4-[(8aS)-7-[[(4R)-4-(2-chloro-4-fluoro-phenyl)-5-methoxycarbonyl-2-thiazol-2-yl-1,4-dihydropyrimidin-6-yl]methyl]-3-oxo-5,6,8,8a-tetrahydro-1H-imidazo[1,5-a]pyrazin-2-yl]-2,2-dimethyl-butanoic acid]	>12500	> 100000 nM	0%	387 µg/mL (≈ 625 µM)	4.6 mL/min/kg	8 nM	–
COC(=O)C1=C(C)NC(c2ncc(F)cc2F)=N[C@H]1c1ccc(F)cc1Cl [Bay 41-4109]	–	–	–	–	–	–	demonstrated in vivo efficacy with HBV DNA reduction
CCOC(=O)C1=C(CN2CCN3C(=O)N(CC(C)C(=O)O)C[C@@H]3C2)NC(c2nccs2)=N[C@H]1c1cccc(F)c1Cl (stereo partly drawn) [Example 21, 3-[(8aS)-7-[[(4R)-4-(2-chloro-3-fluoro-phenyl)-5-ethoxycarbonyl-2-thiazol-2-yl-1,4-dihydropyrimidin-6-yl]methyl]-3-oxo-5,6,8,8a-tetrahydro-1H-imidazo[1,5-a]pyrazin-2-yl]-2-methyl-propanoic acid]	>6211	> 100000 nM	2.4%	> 786 µg/mL	2.7 mL/min/kg	16 nM	–
CCOC(=O)C1=C(CN2CCN3C(=O)N(CC(C)(C)C(=O)O)C[C@@H]3C2)NC(c2nccs2)=N[C@H]1c1cccc(F)c1Cl [Example 19, 3-[(8aS)-7-[[(4R)-4-(2-chloro-3-fluoro-phenyl)-5-ethoxycarbonyl-2-thiazol-2-yl-1,4-dihydropyrimidin-6-yl]methyl]-3-oxo-5,6,8,8a-tetrahydro-1H-imidazo[1,5-a]pyrazin-2-yl]-2,2-dimethyl-propanoic acid]	>30303	> 100000 nM	1%	> 727 µg/mL	0.4 mL/min/kg	3 nM	–
CCOC(=O)C1=C(CN2CCN3C(=O)N(C4CCC(C(=O)O)C4)C[C@@H]3C2)NC(c2nccs2)=N[C@H]1c1cccc(F)c1Cl (mixture of isomers) [Example 62, (R)-6-[(S)-2-((1R,3S)-3-Carboxy-cyclopentyl)-3-oxo-hexahydro-imidazo[1,5-a]pyrazin-7-ylmethyl]-4-(2-chloro-3-fluoro-phenyl)-2-thiazol-2-yl-1,4-dihydro-pyrimidine-5-carboxylic acid ethyl ester and (R)-6-[(S)-2-((1S,3R)-3-Carboxy-cyclopentyl)-3-oxo-hexahydro-imidazo[1,5-a]pyrazin-7-ylmethyl]-4-(2-chloro-3-fluoro-phenyl)-2-thiazol-2-yl-1,4-dihydro-pyrimidine-5-carboxylic acid ethyl ester]	>16667	> 100000 nM	0%	374 µg/mL	1.7 mL/min/kg	6 nM	–
CCOC(=O)C1=C(CN2CCN3C(=O)N(CC4(C(=O)O)CC4)C[C@@H]3C2)NC(c2nccs2)=N[C@H]1c1cccc(F)c1Cl [Example 36, 1-[[(8aS)-7-[[(4R)-4-(2-chloro-3-fluoro-phenyl)-5-ethoxycarbonyl-2-thiazol-2-yl-1,4-dihydropyrimidin-6-yl]methyl]-3-oxo-5,6,8,8a-tetrahydro-1H-imidazo[1,5-a]pyrazin-2-yl]methyl]cyclopropanecarboxylic acid]	>18181	> 100000 nM	6%	485 µg/mL (≈ 786 µM)	4.4 mL/min/kg	6 nM	–
COC(=O)C1=C(CN2CCN3C(=O)N(C(C)(C)C)C[C@@H]3[C@H]2C(=O)O)NC(c2nccs2)=N[C@H]1c1ccc(F)c(F)c1C (single isomer, unassigned) [Example 88B]	>20000	> 100000 nM	3.7%	> 745 µg/mL	4.5 mL/min/kg	5 nM	–
